Values after ≈ are worked out from the molar mass of the structure shown.
assay: Compound was evaluated for cytotoxic activity against KB cells.; format: functional, cell-based; conditions: Homo sapiens

Row | Structure (SMILES) | IC50 [µg/mL]
1 | CC(=O)O[C@@H](CC[C@@H](O)[C@]1(C)CC[C@H]([C@@](C)(O)CCC=C(C)C)O1)[C@@]1(C)CC[C@H]([C@@](C)(O)CCC=C(C)C)O1 | 0.52 (≈ 0.941 µM)
2 | CC(C)=CCC[C@](C)(O)[C@H]1CC[C@](C)([C@@H]2CC[C@H]([C@]3(C)CC[C@@H]([C@](C)(O)CCC=C(C)C)O3)O2)O1 | 7 (≈ 14.2 µM)
3 | CC(C)(O)/C=C/C[C@](C)(O)[C@H]1CC[C@@](C)([C@H]2CC[C@H]([C@]3(C)CC[C@H]([C@@](C)(O)C/C=C/C(C)(C)OO)O3)O2)O1 | 5.3 (≈ 9.8 µM)
4 | CC(=O)O[C@@H](CC[C@@H](OC(C)=O)[C@]1(C)CC[C@H]([C@@](C)(O)CCC=C(C)C)O1)[C@@]1(C)CC[C@H]([C@@](C)(O)CCC=C(C)C)O1 | > 100

Reference: ChEMBL document CHEMBL1130908, “Diastereoselective two-directional synthesis and cation transport ability of the central tristetrahydrofuranyl unit of meso polyether glabrescol as naturally occurring podand” (Bioorg Med Chem Lett, 1998)
